The NIST ThermoML archive (doi:10.1021/je060271a)
Numbers after ± are expanded uncertainties.

Details: 283.14 K, Liquid, Vibrating tube method

CCCCCCC(=O)OCC(COC(=O)CCCCCC)(COC(=O)CCCCCC)COC(=O)CCCCCC [pentaerythritol tetraheptanoate]
Details | mass density [kg/m3]
13797 kPa | 993.7 ± 1.2
13815 kPa | 993.7 ± 1.2
13832 kPa | 993.7 ± 1.2
13850 kPa | 993.7 ± 1.2
13872 kPa | 993.7 ± 1.2
13889 kPa | 993.7 ± 1.2
13907 kPa | 993.7 ± 1.2
13928 kPa | 993.7 ± 1.2
13946 kPa | 993.7 ± 1.2
13964 kPa | 993.7 ± 1.2
13985 kPa | 993.7 ± 1.2
14003 kPa | 993.7 ± 1.2
14021 kPa | 993.7 ± 1.2
14043 kPa | 993.7 ± 1.2
14061 kPa | 993.8 ± 1.2
14079 kPa | 993.9 ± 1.2
14098 kPa | 993.8 ± 1.2
14120 kPa | 993.8 ± 1.2
14138 kPa | 993.9 ± 1.2
14160 kPa | 993.9 ± 1.2
14178 kPa | 993.9 ± 1.2
14197 kPa | 993.9 ± 1.2
14216 kPa | 993.8 ± 1.2
14238 kPa | 993.9 ± 1.2
14256 kPa | 993.9 ± 1.2
14278 kPa | 993.9 ± 1.2
14297 kPa | 993.9 ± 1.2
14316 kPa | 993.9 ± 1.2
14339 kPa | 994 ± 1.2
14358 kPa | 994 ± 1.2
14377 kPa | 993.9 ± 1.2
14396 kPa | 993.9 ± 1.2
14419 kPa | 993.9 ± 1.2
14438 kPa | 994 ± 1.2
14458 kPa | 994 ± 1.2
14480 kPa | 994 ± 1.2
14500 kPa | 994 ± 1.2
14523 kPa | 994 ± 1.2
14542 kPa | 994.1 ± 1.2
14561 kPa | 994 ± 1.2
14585 kPa | 994.1 ± 1.2
14605 kPa | 994.1 ± 1.2
14625 kPa | 994.1 ± 1.2
14645 kPa | 994 ± 1.2
14668 kPa | 994.1 ± 1.2
14688 kPa | 994.1 ± 1.2
14708 kPa | 994.1 ± 1.2
14733 kPa | 994.2 ± 1.2
14752 kPa | 994.2 ± 1.2
14772 kPa | 994.3 ± 1.2
14797 kPa | 994 ± 1.2
14817 kPa | 994.3 ± 1.2
14838 kPa | 994.2 ± 1.2
14863 kPa | 994.2 ± 1.2
14884 kPa | 994.2 ± 1.2
14905 kPa | 994.2 ± 1.2
14926 kPa | 994.3 ± 1.2
14946 kPa | 994.2 ± 1.2
14971 kPa | 994.3 ± 1.2
14991 kPa | 994.2 ± 1.2
15016 kPa | 994.3 ± 1.2
15037 kPa | 994.2 ± 1.2
15057 kPa | 994.4 ± 1.2
15083 kPa | 994.4 ± 1.2
15104 kPa | 994.4 ± 1.2
15125 kPa | 994.4 ± 1.2
15151 kPa | 994.5 ± 1.2
15173 kPa | 994.4 ± 1.2
15194 kPa | 994.3 ± 1.2
15216 kPa | 994.4 ± 1.2
15242 kPa | 994.5 ± 1.2
15263 kPa | 994.4 ± 1.2
15285 kPa | 994.5 ± 1.2
15310 kPa | 994.4 ± 1.2
15332 kPa | 994.4 ± 1.2
15354 kPa | 994.5 ± 1.2
15567 kPa | 994.5 ± 1.2
15589 kPa | 994.5 ± 1.2
15616 kPa | 994.6 ± 1.2
15638 kPa | 994.6 ± 1.2
15661 kPa | 994.7 ± 1.2
15689 kPa | 994.7 ± 1.2
15711 kPa | 994.7 ± 1.2
15734 kPa | 994.7 ± 1.2
15762 kPa | 994.7 ± 1.2
15785 kPa | 994.6 ± 1.2
15808 kPa | 994.8 ± 1.2
15836 kPa | 994.7 ± 1.2
15860 kPa | 994.8 ± 1.2
15883 kPa | 994.8 ± 1.2
15911 kPa | 994.9 ± 1.2
15934 kPa | 994.7 ± 1.2
15958 kPa | 994.8 ± 1.2
15982 kPa | 994.8 ± 1.2
16010 kPa | 994.9 ± 1.2
16034 kPa | 994.8 ± 1.2
16062 kPa | 995 ± 1.2
16087 kPa | 995 ± 1.2
16111 kPa | 994.9 ± 1.2
16139 kPa | 994.9 ± 1.2
16164 kPa | 994.9 ± 1.2
16188 kPa | 994.8 ± 1.2
16212 kPa | 994.9 ± 1.2
16242 kPa | 994.9 ± 1.2
16266 kPa | 995.1 ± 1.2
16291 kPa | 994.9 ± 1.2
16321 kPa | 994.9 ± 1.2
16345 kPa | 995 ± 1.2
16375 kPa | 995 ± 1.2
16400 kPa | 995 ± 1.2
16425 kPa | 995.1 ± 1.2
16450 kPa | 995.1 ± 1.2
16481 kPa | 995 ± 1.2
16506 kPa | 995.1 ± 1.2
16531 kPa | 995.1 ± 1.2
16587 kPa | 995.1 ± 1.2
16617 kPa | 995.2 ± 1.2
16669 kPa | 995.1 ± 1.2
16725 kPa | 995.2 ± 1.2
16752 kPa | 995.2 ± 1.2
16779 kPa | 995.3 ± 1.2
16810 kPa | 995.3 ± 1.2
16836 kPa | 995.2 ± 1.2
16868 kPa | 995.2 ± 1.2
16894 kPa | 995.4 ± 1.2
16921 kPa | 995.3 ± 1.2
16953 kPa | 995.3 ± 1.2
16980 kPa | 995.4 ± 1.2
17007 kPa | 995.4 ± 1.2
17035 kPa | 995.4 ± 1.2
17068 kPa | 995.4 ± 1.2
17095 kPa | 995.5 ± 1.2
17124 kPa | 995.4 ± 1.2
17152 kPa | 995.4 ± 1.2
17180 kPa | 995.5 ± 1.2
17214 kPa | 995.3 ± 1.2
17241 kPa | 995.5 ± 1.2
17269 kPa | 995.5 ± 1.2
17363 kPa | 995.5 ± 1.2
17449 kPa | 995.6 ± 1.2
17484 kPa | 995.7 ± 1.2
17513 kPa | 995.5 ± 1.2
17543 kPa | 995.7 ± 1.2
17572 kPa | 995.6 ± 1.2
17607 kPa | 995.7 ± 1.2
17636 kPa | 995.8 ± 1.2
17666 kPa | 995.6 ± 1.2
17700 kPa | 995.7 ± 1.2
17729 kPa | 995.8 ± 1.2
17759 kPa | 995.8 ± 1.2
17794 kPa | 995.8 ± 1.2
17824 kPa | 995.7 ± 1.2
17854 kPa | 995.8 ± 1.2
17890 kPa | 995.9 ± 1.2
17920 kPa | 995.8 ± 1.2
17950 kPa | 995.9 ± 1.2
17986 kPa | 995.8 ± 1.2
18017 kPa | 995.9 ± 1.2
18048 kPa | 996 ± 1.2
18085 kPa | 995.9 ± 1.2
18116 kPa | 995.9 ± 1.2
18147 kPa | 995.9 ± 1.2
18184 kPa | 995.9 ± 1.2
18215 kPa | 996 ± 1.2
18247 kPa | 996 ± 1.2
18278 kPa | 996 ± 1.2
18316 kPa | 995.9 ± 1.2
18348 kPa | 996 ± 1.2
18380 kPa | 996.1 ± 1.2
18419 kPa | 996.1 ± 1.2
18450 kPa | 996.2 ± 1.2
18489 kPa | 996.2 ± 1.2
18522 kPa | 996.1 ± 1.2
18554 kPa | 996.1 ± 1.2
18586 kPa | 996.1 ± 1.2
18625 kPa | 996.3 ± 1.2
18658 kPa | 996.3 ± 1.2
18697 kPa | 996.3 ± 1.2
18731 kPa | 996.2 ± 1.2
18764 kPa | 996.3 ± 1.2
18805 kPa | 996.3 ± 1.2
18839 kPa | 996.3 ± 1.2
18873 kPa | 996.3 ± 1.2
18908 kPa | 996.4 ± 1.2
18950 kPa | 996.4 ± 1.2
18986 kPa | 996.4 ± 1.2
19030 kPa | 996.4 ± 1.2
19067 kPa | 996.3 ± 1.2
19105 kPa | 996.5 ± 1.2
19144 kPa | 996.5 ± 1.2
19165 kPa | 996.5 ± 1.2
19176 kPa | 996.5 ± 1.2
19199 kPa | 996.5 ± 1.2
19220 kPa | 996.4 ± 1.2
19241 kPa | 996.6 ± 1.2
19262 kPa | 996.5 ± 1.2
19288 kPa | 996.7 ± 1.2
19308 kPa | 996.5 ± 1.2
19333 kPa | 996.6 ± 1.2
19354 kPa | 996.5 ± 1.2
19376 kPa | 996.7 ± 1.2
19396 kPa | 996.7 ± 1.2
19422 kPa | 996.6 ± 1.2
19443 kPa | 996.8 ± 1.2
19465 kPa | 996.7 ± 1.2
19491 kPa | 996.7 ± 1.2
19512 kPa | 996.7 ± 1.2
19538 kPa | 996.8 ± 1.2
19560 kPa | 996.7 ± 1.2
19582 kPa | 996.6 ± 1.2
19604 kPa | 996.8 ± 1.2
19630 kPa | 996.7 ± 1.2
19652 kPa | 996.7 ± 1.2
19675 kPa | 996.7 ± 1.2
19697 kPa | 996.7 ± 1.2
19746 kPa | 996.8 ± 1.2
19769 kPa | 996.8 ± 1.2
19796 kPa | 996.9 ± 1.2
19818 kPa | 996.8 ± 1.2
19841 kPa | 996.8 ± 1.2
19863 kPa | 996.9 ± 1.2
19890 kPa | 996.9 ± 1.2
19912 kPa | 996.9 ± 1.2
